From patent US7109380B2, “Cyclopentenedione antifungal compounds and methods for their use” (The University of Mississippi, priority 2004, dated 2006)
Converted amounts (≈) assume the structure as drawn.

Key:
Type in all cases: cell-based
Phomopsis obscurans = test: 96-well microtiter fungal growth assay
From the text: (§1) Pathogen collection. Isolates of Colletotrichum acutatum Simmonds, Colletotrichum fragariae Brooks, and Colletotrichum gloeosporioides (Penz.) Penz. & Sacc. in Penz. were obtained from B. J. Smith, USDA, ARS, Small Fruit Research Station, Poplarville, Mass. Colletotrichum fragariae (isolate CF63), C. acutatum (isolate CAGoff), and C. gloeosporioides (isolate CG162) were used for all pathogen and bioautography studies. Isolate CF63 is one of the most virulent isolates at infecting strawberry plants and inducing both crown and fruit rot (Smith and Black, 1990). CF63, CAGoff, and CG162 were used as standard test isolates because of our extensive knowledge of these isolates and their known fungicide sensitivity profiles in both bioautography and microtiter formats. The three Colletotrichum species were isolated from strawberry (Fragaria xananassa Duchesne). Botrytis cinerea Pers.:Fr, was isolated from commercial grape (Vitis vinifera L.) and Fusarium oxysporum Schlechtend:Fr from orchid (Cynoches sp.) by David E. Wedge, USDA ARS Natural Products Utilization Research Unit. Phomopsis viticola (Sacc.) and P. obscurans (Ellis & Everh.) Sutton were from Mike A. Ellis, Ohio State University, Wooster, Ohio. Fungi were grown on potato-dextrose agar (PDA, Difco, Detroit Mich.) in 9 cm petri dishes and incubated in a growth chamber at 24±2° C. and under cool-white fluorescent lights ([…]·m^−2·sec^−1 light) with 12-h photoperiod.
(§2) Inoculum preparation. Conidia were harvested from 7–10 day-old cultures by flooding plates with 5 mL of sterile distilled water and dislodging conidia by softly brushing the colonies with an L-shaped glass rod. Conidial suspensions were filtered through sterile miracloth (Calbiochem-Novabiochem Corp., La Jolla Calif.) to remove mycelia. Conidia concentrations were determined photometrically, from a standard curve based on the absorbance at 625 nm and suspensions were then adjusted with sterile distilled water to a concentration of 1.0×10^6 conidia/mL.
(§3) Microtiter assay. A standardized 96-well microtiter plate assay developed for discovery of natural product fungicidal agents. A 96-well microtiter assay was used to determine sensitivity of B. cinerea, C. acutatum, C. fragariae, C. gloeosporioides, F. oxysporum, Phomopsis viticola, and P. obscurans to the various antifungal agents in comparison with known fungicidal standards. Vinclozolin, captan, and thiabendazole, which represent three different modes of action, were used as standards in this experiment. Each fungus was challenged in a dose-response format using test compounds where the final treatment concentrations were 0.3, 3.0 and 30.0 μM. Microtiter plates (Nunc MicroWell, untreated; Roskilde, Denmark) were covered with a plastic lid and incubated in a growth chamber at 24±1 C and 12 h photoperiod under 60±5 μmol light. Growth was then evaluated by measuring absorbance of each well at 620 nm using a microplate photometer (Packard Spectra Count, Packard Instrument Co., Downers Grove, Ill.).
(§4) Microbioassay Experimental Design. Chemical sensitivity of each fungus 96-well microtiter assay is used to determine sensitivity of B. cinerea, C. acutatum, C. fragariae, C. gloeosporioides, F. oxysporum, Phomopsis viticola, and P. obscurans. Each chemical is evaluated in duplicate at each dose (0.3, 3.0 and 30.0 μM) and repeated twice in time. Sixteen wells containing broth and inoculum serves as positive controls, eight wells containing solvent at the appropriate concentration and broth without inoculum are used as negative controls. […] Treatments are arranged as a split-plot design replicated twice in time. Whole-plots were fungal isolates and sub-plots are chemicals. Each dose level and response time is analyzed separately. The SAS system's analysis of variance procedure (Statistical Analysis System, Cary, N.C.) is used to identify significant factors and Fisher's protected LSD is used to separate means.

Phomopsis viticola = test: 96-well microtiter fungal growth assay;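 as to Mean percent fungal growth inhibition of Phomopsis viticola: percent relative to untreated positive growth controls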
From the text: as §1, §2, §3, §4

Colletotrichum acutatum = test: 96-well microtiter fungal growth assay;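 also: percent relative to untreated positive growth controls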
From the text: as §1, §2, §3
as §4, with “controls. Mean absorbance values and standard errors is used to evaluate fungal growth at 48 hrs and 72 hrs except for P. obscurans and P. viticola the data are recorded at 120 hrs.” for “controls.”, “The SAS system's analysis of variance procedure (Statistical Analysis System, Cary, N.C.) is used to identify significant factors and Fisher's protected LSD is used to separate means.” left out

Fusarium oxysporum = test: 96-well microtiter fungal growth assay;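 also: percent relative to untreated positive growth controls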
From the text: as §1, §2, §3
as §4, with “controls. Mean absorbance values and standard errors is used to evaluate fungal growth at 48 hrs and 72 hrs except for P. obscurans and P. viticola the data are recorded at 120 hrs.” for “controls.”, “The SAS system's analysis of variance procedure (Statistical Analysis System, Cary, N.C.) is used to identify significant factors and Fisher's protected LSD is used to separate means.” left out

Colletotrichum fragariae = test: 96-well microtiter fungal growth assay;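 also: percent relative to untreated positive growth controls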
From the text: as §1, §2, §3
as §4, with “controls. Mean absorbance values and standard errors is used to evaluate fungal growth at 48 hrs and 72 hrs except for P. obscurans and P. viticola the data are recorded at 120 hrs.” for “controls.”, “The SAS system's analysis of variance procedure (Statistical Analysis System, Cary, N.C.) is used to identify significant factors and Fisher's protected LSD is used to separate means.” left out

Botrytis cinerea = test: 96-well microtiter fungal growth assay;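 also: percent relative to untreated positive growth controls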
From the text: as §1, §2, §3
as §4, with “controls. Mean absorbance values and standard errors is used to evaluate fungal growth at 48 hrs and 72 hrs except for P. obscurans and P. viticola the data are recorded at 120 hrs.” for “controls.”, “The SAS system's analysis of variance procedure (Statistical Analysis System, Cary, N.C.) is used to identify significant factors and Fisher's protected LSD is used to separate means.” left out

[1] = tested on: Colletotrichum gloeosporioides; test: 96-well microtiter fungal growth assay;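 also: percent relative to untreated positive growth controls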
From the text: as §1, §2, §3
as §4, with “controls. Mean absorbance values and standard errors is used to evaluate fungal growth at 48 hrs and 72 hrs except for P. obscurans and P. viticola the data are recorded at 120 hrs.” for “controls.”, “The SAS system's analysis of variance procedure (Statistical Analysis System, Cary, N.C.) is used to identify significant factors and Fisher's protected LSD is used to separate means.” left out

[2] = tested on: M. intracellulare ATCC 23068; test: In vitro antibacterial assay (modified method of Franzblau, Alamar Blue); conditions: Mycobacterium intracellulare, ATCC23068, M. intracellulare ATCC 23068

O=C1C2CC=CCC2C(=O)N1SC(Cl)(Cl)Cl (stereo not drawn) [Captan]
Percent change in fungal growth vs control (negative = inhibition) (Phomopsis obscurans; 0.3 μm, 120 hrs): −37.3 ± 6.6% | Percent change in fungal growth vs control (negative = inhibition) (Phomopsis obscurans; 0.3 μm, 144 hrs): −30.9 ± 6.3% | Percent change in fungal growth vs control (negative = inhibition) (Phomopsis obscurans; 3.0 μm, 120 hrs): −96.0 ± 1.8% | Percent change in fungal growth vs control (negative = inhibition) (Phomopsis obscurans; 3.0 μm, 144 hrs): −98.3 ± 0.6% | Percent change in fungal growth vs control (negative = inhibition) (Phomopsis obscurans; 30 μm, 120 hrs): −100 ± 0.0% | Percent change in fungal growth vs control (negative = inhibition) (Phomopsis obscurans; 30 μm, 144 hrs): −99.6 ± 0.2% | Mean percent fungal growth inhibition of Phomopsis viticola (Phomopsis viticola; 0.3 μm, 120 hrs): −118.5 ± 198.7% | Mean percent fungal growth inhibition of Phomopsis viticola (Phomopsis viticola; 3.0 μm, 120 hrs): −99.8 ± 38.2% | Mean percent fungal growth inhibition of Phomopsis viticola (Phomopsis viticola; 3.0 μm, 144 hrs): −95.7 ± 26.0% | Mean percent fungal growth inhibition of Phomopsis viticola (Phomopsis viticola; 30 μm, 120 hrs): −100.0 ± 0.0% | Mean percent fungal growth inhibition of Phomopsis viticola (Phomopsis viticola; 30 μm, 144 hrs): −67.8 ± 21.5% | IC50 (Phomopsis viticola; Diaporthe ampelina, 72 h, read-out: IC50 (growth inhibition)): < 3.1 µM | Mean percent fungal growth inhibition of Colletotrichum acutatum (Colletotrichum acutatum; 0.3 μm, 48 hrs): 42.5 ± 8.8% | Mean percent fungal growth inhibition of Colletotrichum acutatum (Colletotrichum acutatum; 0.3 μm, 72 hrs): 35.4 ± 6.1% | Mean percent fungal growth inhibition of Colletotrichum acutatum (Colletotrichum acutatum; 3.0 μm, 48 hrs): −98.0 ± 0.9% | Mean percent fungal growth inhibition of Colletotrichum acutatum (Colletotrichum acutatum; 3.0 μm, 72 hrs): −94.1 ± 3.0% | Mean percent fungal growth inhibition of Colletotrichum acutatum (Colletotrichum acutatum; 30 μm, 48 hrs): −98.6 ± 0.5% | Mean percent fungal growth inhibition of Colletotrichum acutatum (Colletotrichum acutatum; 30 μm, 72 hrs): −99.7 ± 0.2% | Mean percent fungal growth inhibition of Fusarium oxysporum (Fusarium oxysporum; 0.3 μm, 48 hrs): 13.6 ± 3.5% | Mean percent fungal growth inhibition of Fusarium oxysporum (Fusarium oxysporum; 0.3 μm, 72 hrs): 12.0 ± 2.2% | Mean percent fungal growth inhibition of Fusarium oxysporum (Fusarium oxysporum; 3.0 μm, 48 hrs): −50.0 ± 2.8% | Mean percent fungal growth inhibition of Fusarium oxysporum (Fusarium oxysporum; 3.0 μm, 72 hrs): −5.4 ± 4.4% | Mean percent fungal growth inhibition of Fusarium oxysporum (Fusarium oxysporum; 30 μm, 48 hrs): −99.4 ± 0.3% | Mean percent fungal growth inhibition of Fusarium oxysporum (Fusarium oxysporum; 30 μm, 72 hrs): −99.5 ± 0.4% | Mean percent fungal growth inhibition of Colletotrichum fragariae (Colletotrichum fragariae; 0.3 μm, 48 hrs): 18.1 ± 2.7% | Mean percent fungal growth inhibition of Colletotrichum fragariae (Colletotrichum fragariae; 0.3 μm, 72 hrs): −17.5 ± 15.6% | Mean percent fungal growth inhibition of Colletotrichum fragariae (Colletotrichum fragariae; 3.0 μm, 48 hrs): −96.2 ± 1.0% | Mean percent fungal growth inhibition of Colletotrichum fragariae (Colletotrichum fragariae; 3.0 μm, 72 hrs): −74.0 ± 9.3% | Mean percent fungal growth inhibition of Colletotrichum fragariae (Colletotrichum fragariae; 30 μm, 48 hrs): −99.7 ± 1.0% | Mean percent fungal growth inhibition of Colletotrichum fragariae (Colletotrichum fragariae; 30 μm, 72 hrs): −91.4 ± 5.2% | Mean percent fungal growth inhibition of Botrytis cinerea (Botrytis cinerea; 0.3 μm, 48 hrs): 3.1 ± 26.7% | Mean percent fungal growth inhibition of Botrytis cinerea (Botrytis cinerea; 0.3 μm, 72 hrs): 3.4 ± 5.8% | Mean percent fungal growth inhibition of Botrytis cinerea (Botrytis cinerea; 3.0 μm, 48 hrs): −45.9 ± 22.2% | Mean percent fungal growth inhibition of Botrytis cinerea (Botrytis cinerea; 3.0 μm, 72 hrs): −46.1 ± 5.6% | Mean percent fungal growth inhibition of Botrytis cinerea (Botrytis cinerea; 30 μm, 48 hrs): −76.4 ± 13.4% | Mean percent fungal growth inhibition of Botrytis cinerea (Botrytis cinerea; 30 μm, 72 hrs): −98.7 ± 0.9% | Mean percent fungal growth inhibition of Colletotrichum gloeosporoides ([1]; 0.3 μm, 48 hrs): 31.5 ± 7.3% | Mean percent fungal growth inhibition of Colletotrichum gloeosporoides ([1]; 0.3 μm, 72 hrs): 38.6 ± 4.5% | Mean percent fungal growth inhibition of Colletotrichum gloeosporoides ([1]; 3.0 μm, 48 hrs): −97.3 ± 1.5% | Mean percent fungal growth inhibition of Colletotrichum gloeosporoides ([1]; 3.0 μm, 72 hrs): −95.2 ± 1.9% | Mean percent fungal growth inhibition of Colletotrichum gloeosporoides ([1]; 30 μm, 48 hrs): −98.4 ± 0.5% | Mean percent fungal growth inhibition of Colletotrichum gloeosporoides ([1]; 30 μm, 72 hrs): −98.6 ± 1.7%

O=C(O)c1cn(C2CC2)c2cc(N3CCNCC3)c(F)cc2c1=O [CIP, ciprofloxacin, reference compound]
MIC [2]: 0.63 µg/mL (≈ 1.9 µM) | IC50 ([2]; read-out: IC50 (50% inhibitory concentration)): 0.3 µg/mL (≈ 0.905 µM) | MBC ([2]; read-out: MBC (Minimum Bactericidal Concentration)): 1.25 µg/mL (≈ 3.77 µM)
